Experimental data from US20230339851A1, “CXCR6 SULFONAMIDE COMPOUNDS” (CHEMOCENTRYX, INC., priority 2022, published 2023).

Target: T1, human CXCR6 (Homo sapiens, UniProt O00574)
T1 construct: expressed in transfected cells
Experiment: Radioligand Binding Assay (125I-CXCL16 displacement)
Conditions: L1.2 cells stably transfected with human CXCR6 cDNA, 0.1 nM 125I-CXCL16, 4° C., three-hour incubation; read-out: Potency (IC50)
Procedure: L1.2 cells stably transfected with human CXCR6 cDNA ([…]) were incubated at 4° C. in HBSS containing 0.1 % BSA and 0.1 nM of ^125I-CXCL16 plus various concentrations of Compound. Following a three-hour incubation period, cells were aspirated onto polyethyleneimine-treated GF/B glass fiber filters (PerkinElmer, Waltham, MA) with a cell harvester (Tomtec, Hamden, CT) and washed twice with washing buffer (25 mM Hepes, 500 mM NaCl, 1 mM CaCI2, 5 mM MgCI2, pH 7.1). Fifty µl of MicroScint-20 (PerkinElmer, Waltham, MA) was added to each well of the filters, and radioactive emissions (cpm) were measured on a Packard TopCount Scintillation counter (PerkinElmer, Waltham, MA). IC50 values were calculated with GraphPad Prism using 3 parameter nonlinear regression. […]

T1 sequence (O00574 whole entry): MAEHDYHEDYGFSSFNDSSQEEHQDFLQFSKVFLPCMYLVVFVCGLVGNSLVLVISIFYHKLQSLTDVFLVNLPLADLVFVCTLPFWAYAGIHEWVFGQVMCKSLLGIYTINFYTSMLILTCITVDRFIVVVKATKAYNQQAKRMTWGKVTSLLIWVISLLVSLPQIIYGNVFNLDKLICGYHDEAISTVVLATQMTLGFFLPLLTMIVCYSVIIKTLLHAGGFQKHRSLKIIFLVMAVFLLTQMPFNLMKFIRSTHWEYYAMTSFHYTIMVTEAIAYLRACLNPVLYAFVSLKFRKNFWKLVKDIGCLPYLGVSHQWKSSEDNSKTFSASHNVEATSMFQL

First: CCOc1cc(NC(=O)C2CC=CC[C@H]2N)ccc1S(=O)(=O)Nc1cccc(OC(F)(F)F)c1 (mixture of isomers) [Example 1.026]
Second: CCOc1cc(NC(=O)C2COC[C@H]2O)ccc1S(=O)(=O)Nc1cccc(OC(F)(F)F)c1 (mixture of isomers) [Example 1.518]
The IC50 of the first is higher: 750 to 2000 nM for the first, 200 to 750 nM for the second.

`CCOc1cc(NC(=O)C2CCO[C@@H]2C)ccc1S(=O)(=O)Nc1cccc(OC(F)(F)F)c1` (mixture of isomers) [Example 1.137] and `CCOc1cc(NC(=O)[C@H]2CCOC[C@@H]2C)ccc1S(=O)(=O)Nc1cccc(OC(F)(F)F)c1` (racemic) [Example 1.477] cannot be ordered by IC50: 200 to 750 nM for the first, at most 200 nM for the second.

`COc1cc(NC(=O)[C@@H]2CCOC[C@H]2C)ccc1S(=O)(=O)Nc1cccc(OC(F)(F)F)c1` (racemic) [Example 1.007] and `CCOc1cc(NC(=O)[C@H]2CCOC[C@H]2C)ccc1S(=O)(=O)Nc1cccc(OC(F)(F)F)c1` (racemic) [Example 1.514] cannot be ordered by IC50: 200 to 750 nM for the first, at most 200 nM for the second.

`CCOc1cc(NC(=O)[C@@H]2COC[C@@H]2O)ccc1S(=O)(=O)Nc1cccc(OC(F)(F)F)c1` (racemic) [Example 1.010] and `CCOc1cc(NC(=O)[C@H]2CCOC[C@H]2O)ccc1S(=O)(=O)Nc1cccc(OC(F)(F)F)c1` (racemic) [Example 1.107] fall in the same range of IC50: 200 to 750 nM for the first, 200 to 750 nM for the second.

`CCOc1cc(NC(=O)[C@H]2CCOC[C@@H]2CC)ccc1S(=O)(=O)Nc1cccc(OC(F)(F)F)c1` (racemic) [Example 1.065] and `CCOc1cc(NC(=O)[C@H]2CCOC[C@H]2CC)ccc1S(=O)(=O)Nc1cccc(OC(F)(F)F)c1` (racemic) [Example 1.233] cannot be ordered by IC50: at most 200 nM for the first, at most 200 nM for the second.

`CCOc1cc(NC(=O)[C@H](C2CCCC2)[C@@H](C)O)ccc1S(=O)(=O)Nc1cccc(OC(F)(F)F)c1` (racemic) [Example 1.147] and `CCOc1cc(NC(=O)[C@@H](N)C(C)O)ccc1S(=O)(=O)Nc1cccc(OC(F)(F)F)c1` (some centres unmarked) [Example 1.032] cannot be ordered by IC50: at most 200 nM for the first, at most 200 nM for the second.

Compared with `CCOc1cc(NC(=O)[C@H]2CC=CC[C@@H]2C(=O)O)ccc1S(=O)(=O)Nc1ccc(C)c(OC(F)(F)F)c1` (racemic) [Example 1.167], `CCOc1cc(NC(=O)[C@H]2CC=CC[C@H]2C(=O)O)ccc1S(=O)(=O)Nc1ccc(C)c(OC(F)(F)F)c1` (racemic) [Example 1.333] is lower in IC50: 2000 to 20000 nM for the first, 750 to 2000 nM for the second.

`COc1cc(NC(=O)[C@H]2CCOC[C@H]2C)ccc1S(=O)(=O)Nc1cccc(C(F)(F)F)c1` (racemic) [Example 1.219] and `Cc1cc(NC(=O)[C@H]2CCOC[C@H]2C)ccc1S(=O)(=O)Nc1cccc(C(F)(F)F)c1` (racemic) [Example 1.483] fall in the same range of IC50: 200 to 750 nM for the first, 200 to 750 nM for the second.

Compared with `CCOc1cc(NC(=O)[C@H]2CCOC[C@@H]2COC)ccc1S(=O)(=O)Nc1cccc(OC(F)(F)F)c1` (racemic) [Example 1.237], `CCOc1cc(NC(=O)[C@H]2CC[C@H](OC)CC2)ccc1S(=O)(=O)Nc1cccc(OC(F)(F)F)c1` [Example 1.028] is higher in IC50: 200 to 750 nM for the first, 750 to 2000 nM for the second.

First: CCOc1cc(NC(=O)[C@H]2CCCC[C@H]2C(=O)O)ccc1S(=O)(=O)Nc1ccc(C)c(OC(F)(F)F)c1 (racemic) [Example 1.314]
Second: CCOc1cc(NC(=O)C2CC=CC[C@H]2O)ccc1S(=O)(=O)Nc1ccc(C)c(OC(F)(F)F)c1 (some centres unmarked) [Example 1.029]
The IC50 of the first is higher: 750 to 2000 nM for the first, at most 200 nM for the second.

Compared with `C[C@@H]1COCC[C@@H]1C(=O)Nc1ccc(S(=O)(=O)Nc2cccc(OC(F)(F)F)c2)c(C#N)c1` (racemic) [Example 1.341], `COc1cc(NC(=O)C2CCOC2)ccc1S(=O)(=O)Nc1cccc(OC(F)(F)F)c1` (centres unmarked) [Example 1.042] is lower in IC50: 2000 to 20000 nM for the first, 750 to 2000 nM for the second. The second is the more potent here.

`Cc1cc(NC(=O)c2ccn(C)n2)ccc1S(=O)(=O)Nc1cccc(C(F)(F)F)c1` [Example 1.001] and `Cc1cc(NC(=O)c2cncn2C)ccc1S(=O)(=O)Nc1cccc(C(F)(F)F)c1` [Example 1.048] fall in the same range of IC50: 2000 to 20000 nM for the first, 2000 to 20000 nM for the second.

`Cc1cc(NC(=O)c2ccc(F)cc2)ccc1S(=O)(=O)Nc1cccc(C(F)(F)F)c1` [Example 1.002] and `Cc1cc(NC(=O)c2ccoc2C)ccc1S(=O)(=O)Nc1cccc(C(F)(F)F)c1` [Example 1.019] fall in the same range of IC50: 200 to 750 nM for the first, 200 to 750 nM for the second.

`CCOc1cc(NC(=O)[C@@H](CO)c2ccccc2)ccc1S(=O)(=O)Nc1ccc(C)c(OC(F)(F)F)c1` [Example 1.003] and `CCOc1cc(NC(=O)C(CCO)c2ccccc2)ccc1S(=O)(=O)Nc1cccc(OC(F)(F)F)c1` (centres unmarked) [Example 1.047] cannot be ordered by IC50: at most 200 nM for the first, at most 200 nM for the second.

`CCOc1cc(NC(=O)[C@@H](CO)C(C)C)ccc1S(=O)(=O)Nc1ccc(Cl)c(OC(F)(F)F)c1` [Example 1.004] and `CCOc1cc(NC(=O)C(CO)C(C)C)ccc1S(=O)(=O)Nc1ccc(Cl)c(OC)c1` (centres unmarked) [Example 1.018] cannot be ordered by IC50: at most 200 nM for the first, at most 200 nM for the second.

`CCOc1cc(NC(=O)[C@@H](CO)C(C)C)ccc1S(=O)(=O)Nc1ccc(OC)c(C(F)(F)F)c1` [Example 1.005] and `CCOc1cc(NC(=O)[C@@H](O)C(C)C)ccc1S(=O)(=O)Nc1ccc(OC)c(C(F)(F)F)c1` [Example 1.021] cannot be ordered by IC50: at most 200 nM for the first, at most 200 nM for the second.

Compared with `CCOc1cc(NC(=O)[C@@H](CO)C(C)C)ccc1S(=O)(=O)Nc1ccc(CO)c(C(F)(F)F)c1` [Example 1.006], `CCOc1cc(NC(=O)[C@@H](CO)C(C)C)ccc1S(=O)(=O)Nc1cccc(OC(F)(F)F)c1` [Example 1.022] is lower in IC50: 2000 to 20000 nM for the first, at most 200 nM for the second.

Compared with `COc1cc(NC(=O)C2CCCCC2)ccc1S(=O)(=O)Nc1cccc(C(F)(F)F)c1` [Example 1.008], `COc1cc(NC(=O)C2CC3CCC32O)ccc1S(=O)(=O)Nc1cccc(C(F)(F)F)c1` (centres unmarked) [Example 1.035] is lower in IC50: 2000 to 20000 nM for the first, 200 to 750 nM for the second.

`COc1cc(NC(=O)[C@@H](CO)C(C)C)ccc1S(=O)(=O)Nc1cccc(OC(F)(F)F)c1` [Example 1.009] and `CCCOc1cc(NC(=O)[C@@H](O)C(C)C)ccc1S(=O)(=O)Nc1cccc(OC(F)(F)F)c1` [Example 1.034] cannot be ordered by IC50: at most 200 nM for the first, at most 200 nM for the second.

`COc1cc(NC(=O)c2ccnn2C)ccc1S(=O)(=O)Nc1cc(Cl)cc(C(F)(F)F)c1` [Example 1.011] and `COc1cc(NC(=O)c2ccnn2C)ccc1S(=O)(=O)Nc1ccc(C#N)c(OC(F)(F)F)c1` [Example 1.015] fall in the same range of IC50: 750 to 2000 nM for the first, 750 to 2000 nM for the second.

`Cc1cc(NC(=O)[C@@H]2CCCN2C(=O)OC(C)(C)C)ccc1S(=O)(=O)Nc1cccc(C(F)(F)F)c1` [Example 1.012] and `COc1cc(NC(=O)[C@@H]2C=CCN2C(=O)OC(C)(C)C)ccc1S(=O)(=O)Nc1cccc(C(F)(F)F)c1` [Example 1.033] fall in the same range of IC50: 2000 to 20000 nM for the first, 2000 to 20000 nM for the second.

`CCOc1cc(NC(=O)C(CC2CC2)C(=O)O)ccc1S(=O)(=O)Nc1cccc(OC(F)(F)F)c1` (centres unmarked) [Example 1.013] and `CCOc1cc(NC(=O)C(CO)CC2CC2)ccc1S(=O)(=O)Nc1cccc(OC(F)(F)F)c1` (centres unmarked) [Example 1.014] cannot be ordered by IC50: at most 200 nM for the first, at most 200 nM for the second.

First: COc1cc(NC(=O)c2ccnn2C)ccc1S(=O)(=O)Nc1ccccc1OC(F)(F)F [Example 1.016]
Second: COc1cc(NC(=O)c2ccnn2C)ccc1S(=O)(=O)Nc1cccc(OC(F)F)c1 [Example 1.041]
The IC50 of the first is higher: 2000 to 20000 nM for the first, 200 to 750 nM for the second. The second is the more potent here.

`CCOc1cc(NC(=O)[C@@H](CO)C(C)C)ccc1S(=O)(=O)Nc1cccc(C(C)(C)C)c1` [Example 1.017] and `CCOc1cc(NC(=O)[C@@H](CO)C(C)C)ccc1S(=O)(=O)Nc1ccc(Cl)cc1` [Example 1.044] cannot be ordered by IC50: at most 200 nM for the first, 200 to 750 nM for the second.

First: CCOc1cc(NC(=O)[C@@H](NC(=O)OC(C)(C)C)C(C)O)ccc1S(=O)(=O)Nc1cccc(OC(F)(F)F)c1 (some centres unmarked) [Example 1.020]
Second: CCOc1cc(NC(=O)C(O)C2C=CCC2)ccc1S(=O)(=O)Nc1cccc(OC(F)(F)F)c1 (centres unmarked) [Example 1.031]
The IC50 of the first is higher: 750 to 2000 nM for the first, at most 200 nM for the second.

`CCOc1cc(NC(=O)C(=O)c2ccccc2)ccc1S(=O)(=O)Nc1cccc(OC(F)(F)F)c1` [Example 1.023] and `CCOc1cc(NC(=O)c2cccc(=O)n2C)ccc1S(=O)(=O)Nc1cccc(OC(F)(F)F)c1` [Example 1.037] fall in the same range of IC50: 200 to 750 nM for the first, 200 to 750 nM for the second.

`N#Cc1cc(NC(=O)[C@@H](CO)c2ccccc2)ccc1S(=O)(=O)Nc1cccc(OC(F)(F)F)c1` [Example 1.024] and `COc1cc(NC(=O)c2ccccc2)ccc1S(=O)(=O)Nc1cccc(C(F)(F)F)c1` [Example 1.040] cannot be ordered by IC50: at most 200 nM for the first, 200 to 750 nM for the second.

`CCOc1cc(NC(=O)[C@@H](CO)C2CC2)ccc1S(=O)(=O)Nc1cccc(C(C)C)c1` [Example 1.025] and `CCOc1cc(NC(=O)C(CC)C(O)C2CCOCC2)ccc1S(=O)(=O)Nc1cccc(OC(F)(F)F)c1` (centres unmarked) [Example 1.039] cannot be ordered by IC50: at most 200 nM for the first, at most 200 nM for the second.

First: CCc1cc(C(=O)Nc2ccc(S(=O)(=O)Nc3cccc(C(F)(F)F)c3)c(OC)c2)n(C)n1 [Example 1.027]
Second: Cc1cc(NC(=O)c2ccnn2C)ccc1S(=O)(=O)Nc1cccc(C(F)(F)F)c1 [Example 1.036]
The IC50 of the first is higher: 750 to 2000 nM for the first, at most 200 nM for the second.

`CCOc1cc(NC(=O)C2CCCNC2)ccc1S(=O)(=O)Nc1cccc(OC(F)(F)F)c1` (centres unmarked) [Example 1.030] and `CCOc1cc(NC(=O)[C@H]2CC[C@@](C)(O)CC2)ccc1S(=O)(=O)Nc1cccc(OC(F)(F)F)c1` [Example 1.043] fall in the same range of IC50: 2000 to 20000 nM for the first, 2000 to 20000 nM for the second.

First: COc1cc(NC(=O)c2ccn(C)c(=O)c2)ccc1S(=O)(=O)Nc1cccc(OC(F)(F)F)c1 [Example 1.038]
Second: COc1cc(NC(=O)[C@@H]2CCCC[C@H]2O)ccc1S(=O)(=O)Nc1cccc(OC(F)(F)F)c1 [Example 1.049]
The IC50 of the first is lower: 200 to 750 nM for the first, 750 to 2000 nM for the second.

First: CCOc1cc(NC(=O)[C@@H](CO)c2ccccc2)ccc1S(=O)(=O)Nc1cccc(OC)c1C [Example 1.045]
Second: CCOc1cc(NC(=O)[C@@H](CO)C(C)C)ccc1S(=O)(=O)Nc1ccc2c(c1)OC(F)(F)O2 [Example 1.050]
The IC50 of the first is higher: 2000 to 20000 nM for the first, 200 to 750 nM for the second. The second is the more potent here.

For `CCOc1cc(NC(=O)C2CC3C=CC2O3)ccc1S(=O)(=O)Nc1cccc(OC(F)(F)F)c1` (centres unmarked) [Example 1.046], the IC50 was 200 to 750 nM.
